Assay [1] deals with Rat Carrageenan-Induced Footpad Edema. Description: Rat Carrageenan-Induced Footpad Edema Test. The class given is in vivo, male Sprague Dawley rats. To be noted: Rattus norvegicus, 3 h, footpad volume 3 hours after carrageenan, read-out: PERCENT INHIBITION; for inhibition in vivo at 2 mg/kg / inhibition in vivo at 10 mg/kg: po, PO; for inhibition in vivo at 5 mg/kg: iv, IV. For orientation: In the carrageenan paw model, swelling and tenderness develop within hours.

Another assay addresses T1, cPLA2 (Homo sapiens, UniProt P47712).
T1 sequence (P47712 1-749): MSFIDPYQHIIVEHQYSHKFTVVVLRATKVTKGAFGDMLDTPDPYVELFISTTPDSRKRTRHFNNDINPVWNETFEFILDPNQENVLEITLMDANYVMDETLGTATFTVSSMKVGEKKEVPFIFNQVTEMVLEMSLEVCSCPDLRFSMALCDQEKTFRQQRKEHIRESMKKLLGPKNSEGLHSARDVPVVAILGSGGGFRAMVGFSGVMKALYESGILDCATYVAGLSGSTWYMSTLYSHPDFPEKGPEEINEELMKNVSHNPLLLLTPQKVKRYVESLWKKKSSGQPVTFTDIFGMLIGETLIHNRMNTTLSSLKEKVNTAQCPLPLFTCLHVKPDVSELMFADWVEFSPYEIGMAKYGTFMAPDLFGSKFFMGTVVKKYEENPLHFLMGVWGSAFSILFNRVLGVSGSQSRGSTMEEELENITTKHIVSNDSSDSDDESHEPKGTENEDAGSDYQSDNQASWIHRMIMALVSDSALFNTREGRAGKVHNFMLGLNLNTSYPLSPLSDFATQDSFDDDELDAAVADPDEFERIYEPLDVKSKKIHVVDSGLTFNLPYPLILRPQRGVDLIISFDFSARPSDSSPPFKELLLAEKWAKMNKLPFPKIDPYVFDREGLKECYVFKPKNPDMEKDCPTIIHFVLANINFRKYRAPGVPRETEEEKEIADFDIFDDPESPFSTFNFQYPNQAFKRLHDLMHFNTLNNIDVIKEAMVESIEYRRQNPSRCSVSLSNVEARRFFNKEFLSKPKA
Description: Coumarin Assay (cPLA2 inhibition). The format is biochemical. To be noted: for inhibition at 10.5 µM: CONCENTRATION 10.5 micromolar; for inhibition at 0.6 µM: CONCENTRATION 0.6 micromolar. The method in brief:
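Percent inhibition at the stated concentration, from the rate of 460 nm emission rise (360 nm excitation) per minute. Reaction started by adding 4 μg enzyme to compound and 60 μM 7-hydroxycoumarinyl 6-heptenoate in Hepes buffer pH 7.5 with 1 mM EDTA.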

Where [2] appears, read: CONCENTRATION 100 micromolar, read-out: PERCENT INHIBITION @.

As usually defined, the inhibition is the relative decrease from the control value, in per cent. Turning to `COc1cc(C(=O)O)ccc1Cc1cn(C(c2ccccc2)c2ccccc2)c2ccc(NS(=O)(=O)c3c(C)noc3C)cc12` [Example 96, 4-[(1-benzhydryl-5-{[(3,5-dimethyl-4-isoxazolyl)sulfonyl]amino}-1H-indol-3-yl)methyl]-3-methoxybenzoic acid], in assay [1], the inhibition in vivo at 2 mg/kg was determined as 29.4% and the inhibition in vivo at 10 mg/kg stood at 22%. Moreover, the inhibition at 8 µM at cPLA2 (CONCENTRATION 8 micromolar, read-out: PERCENT INHIBITION @) amounted to 50%. Besides, the inhibition at 10.5 µM on cPLA2 (read-out: PERCENT INHIBITION @) is 50%.

Regarding `COc1cc(C(=O)O)ccc1Cc1cn(C(c2ccccc2)c2ccccc2)c2ccc(NS(=O)(=O)c3sc(NC(C)=O)nc3C)cc12` [Example 90, 4-{[5-({[2-(acetylamino)-4-methyl-1,3-thiazol-5-yl]sulfonyl}amino)-1-benzhydryl-1H-indol-3-yl]methyl}-3-methoxybenzoic acid], in assay [1], the inhibition in vivo at 2 mg/kg is -0.18% and the inhibition in vivo at 10 mg/kg was found to be 2.7%. Moreover, the inhibition at 10.2 µM at cPLA2 (CONCENTRATION 10.2 micromolar, read-out: PERCENT INHIBITION @) is 50%. Further, at cPLA2 (read-out: PERCENT INHIBITION @), the inhibition at 10.5 µM was determined as 50%.

In the case of `COc1cc(C(=O)NS(=O)(=O)c2ccccc2C)ccc1Cc1cn(C(C)C)c2ccc(NC(=O)OC3CCCC3)cc12` [Example 24, Cyclopentyl N-{1-isopropyl-3-[2-methoxy-4-({[(2-methylphenyl)sulfonyl]amino}carbonyl)benzyl]-1H-indol-5-yl}carbamate], in assay [1], the inhibition in vivo at 5 mg/kg was found to be 8.33%. Also, the “PERCENT INHIBITION @” value at cPLA2 (CONCENTRATION 100 micromolar) was 50%. Also, at cPLA2 (setting [2]), the inhibition at 100 µM turned out to be 42%.

Take `O=C(O)c1cccc(NCc2cn(C(c3ccccc3)c3ccccc3)c3ccc(NC(=O)C4CCCC4)cc23)c1` [Example 65, 3-[({1-benzhydryl-5-[(cyclopentylcarbonyl)amino]-1H-indol-3-yl}methyl)amino]benzoic acid]: the inhibition in vivo at 5 mg/kg in assay [1] came to 2.84%. The inhibition at 50 µM on cPLA2 (CONCENTRATION 50 micromolar, read-out: PERCENT INHIBITION @) turned out to be 47%. Also, the inhibition at 72 µM on cPLA2 (CONCENTRATION 72 micromolar, read-out: PERCENT INHIBITION @) came to 50%. Also, at cPLA2 (CONCENTRATION 80 micromolar, read-out: PERCENT INHIBITION @), the inhibition at 80 µM was determined as 50%.

Take `COc1cc(C(=O)NS(=O)(=O)C(F)(F)F)ccc1Cc1cn(C(c2ccccc2)c2ccccc2)c2ccc(NC(=O)OCc3ccccc3)cc12` [Example 49, benzyl N-{1-benzhydryl-3-[2-methoxy-4-({[(trifluoromethyl)sulfonyl]amino}carbonyl)benzyl]-1H-indol-5-yl}carbamate]: the inhibition in vivo at 5 mg/kg in assay [1] turned out to be 18%. Also, the inhibition at 1.5 µM on cPLA2 (CONCENTRATION 1.5 micromolar, read-out: PERCENT INHIBITION @) was 50%. Also, at cPLA2 (CONCENTRATION 1.8 micromolar, read-out: PERCENT INHIBITION @), the inhibition at 1.8 µM was 50%. Moreover, the inhibition at 2.3 µM at cPLA2 (CONCENTRATION 2.3 micromolar, read-out: PERCENT INHIBITION @) was found to be 50%.

Regarding `O=C(O)c1ccc(Cc2cn(C(c3ccccc3)c3ccccc3)c3ccc(Br)cc23)cc1` [Example 51, 4-[(1-benzhydryl-5-bromo-1H-indol-3-yl)methyl]benzoic acid], in assay [1], the inhibition in vivo at 2 mg/kg turned out to be 3.23% and the inhibition in vivo at 10 mg/kg amounted to 15.4%. Moreover, on cPLA2 (read-out: PERCENT INHIBITION @), the inhibition at 0.6 µM turned out to be 50%. Moreover, the inhibition at 0.8 µM at cPLA2 (CONCENTRATION 0.8 micromolar, read-out: PERCENT INHIBITION @) was 50%. The inhibition at 0.9 µM at cPLA2 (CONCENTRATION 0.9 micromolar, read-out: PERCENT INHIBITION @) is 50%.

In the case of `O=C(O)CCNC(=O)c1cn(C(c2ccccc2)c2ccccc2)c2ccc(NC(=O)C3CCCC3)cc12` [Example 101, 3-[({1-benzhydryl-5-[(cyclopentylcarbonyl)amino]-1H-indol-3-yl}carbonyl)amino]propanoic acid], in assay [1], the inhibition in vivo at 2 mg/kg amounted to 11.2% and the inhibition in vivo at 10 mg/kg is 12.4%. Further, the inhibition at 100 µM at cPLA2 (setting [2]) is 6%. For the same compound, the inhibition at 400 µM on cPLA2 (CONCENTRATION 400 micromolar, read-out: PERCENT INHIBITION @) was determined as 49%.

Take `O=C(O)CCc1cn(C(c2ccccc2)c2ccccc2)c2ccc(NC(=O)C3CCCC3)cc12` [Example 84, 3-{1-benzhydryl-5-[(cyclopentylcarbonyl)amino]-1H-indol-3-yl}propanoic acid]: the inhibition in vivo at 5 mg/kg in assay [1] worked out at 6.15%. Moreover, on cPLA2 (setting [2]), the inhibition at 100 µM worked out at 22%. Also, on cPLA2 (CONCENTRATION 265 micromolar, read-out: PERCENT INHIBITION @), the inhibition at 265 µM was 50%. Further, on cPLA2 (CONCENTRATION 350 micromolar, read-out: PERCENT INHIBITION @), the inhibition at 350 µM was 50%.

Regarding `COc1cc(C(=O)O)ccc1Cc1cn(C(c2ccccc2)c2ccccc2)c2ccc(NS(=O)(=O)c3ccc(Cl)c([N+](=O)[O-])c3)cc12` [Example 91, 4-[(1-benzhydryl-5-{[(4-chloro-3-nitrophenyl)sulfonyl]amino}-1H-indol-3-yl)methyl]-3-methoxybenzoic acid], in assay [1], the inhibition in vivo at 2 mg/kg amounted to 13.5% and the inhibition in vivo at 10 mg/kg was 14.7%. Also, at cPLA2 (CONCENTRATION 3.8 micromolar, read-out: PERCENT INHIBITION @), the inhibition at 3.8 µM stood at 50%. Moreover, on cPLA2 (CONCENTRATION 4.25 micromolar, read-out: PERCENT INHIBITION @), the inhibition at 4.25 µM came out at 50%.

Take `COc1cc(-c2nnn[nH]2)ccc1Cc1cn(C(c2ccccc2)c2ccccc2)c2ccc(NC(=O)OC3CCCC3)cc12` [Example 98, cyclopentyl N-{1-benzhydryl-3-[2-methoxy-4-(1H-1,2,3,4-tetraazol-5-yl)benzyl]-1H-indol-5-yl}carbamate]: in assay [1], the inhibition in vivo at 5 mg/kg stood at 18.4%. The inhibition at 4.8 µM on cPLA2 (CONCENTRATION 4.8 micromolar, read-out: PERCENT INHIBITION @) is 50%. Moreover, on cPLA2 (CONCENTRATION 6.25 micromolar, read-out: PERCENT INHIBITION @), the inhibition at 6.25 µM was found to be 66%. On cPLA2 (CONCENTRATION 8.7 micromolar, read-out: PERCENT INHIBITION @), the inhibition at 8.7 µM was 50%.

Consider `COc1cc(C(=O)NS(=O)(=O)c2ccccc2C)ccc1Cc1cn(C(c2ccccc2)c2ccccc2)c2ccc(Br)cc12` [Example 38, N-{4-[(1-benzhydryl-5-bromo-1H-indol-3-yl)methyl]-3-methoxybenzoyl}-2-methylbenzenesulfonamide], for which, in assay [1], the inhibition in vivo at 2 mg/kg amounted to 15.4% and the inhibition in vivo at 10 mg/kg is 26.3%. Further, the inhibition at 0.3 µM at cPLA2 (CONCENTRATION 0.3 micromolar, read-out: PERCENT INHIBITION @) was found to be 50%. For the same compound, the inhibition at 0.45 µM at cPLA2 (CONCENTRATION 0.45 micromolar, read-out: PERCENT INHIBITION @) came out at 50%. At cPLA2 (CONCENTRATION 0.57 micromolar, read-out: PERCENT INHIBITION @), the inhibition at 0.57 µM was determined as 50%. In addition, at cPLA2 (CONCENTRATION 0.59 micromolar, read-out: PERCENT INHIBITION @), the inhibition at 0.59 µM was 50%. Besides, at cPLA2 (read-out: PERCENT INHIBITION @), the inhibition at 0.6 µM was determined as 50%. The inhibition at 0.64 µM on cPLA2 (CONCENTRATION 0.64 micromolar, read-out: PERCENT INHIBITION @) amounted to 50%. Also, the inhibition at 0.7 µM on cPLA2 (CONCENTRATION 0.7 micromolar, read-out: PERCENT INHIBITION @) amounted to 50%. The inhibition at 0.85 µM at cPLA2 (CONCENTRATION 0.85 micromolar, read-out: PERCENT INHIBITION @) turned out to be 50%. At cPLA2 (CONCENTRATION 1 micromolar, read-out: PERCENT INHIBITION @), the inhibition at 1 µM was 50%.

Regarding `O=C(Nc1ccc2c(c1)c(Cc1ccc(C(=O)O)cc1)cn2C(c1ccccc1)c1ccccc1)OC1CCCC1` [Example 52, 4-[(1-benzhydryl-5-{[(cyclopentyloxy)carbonyl]amino}-1H-indol-3-yl)methyl]benzoic acid], in assay [1], the inhibition in vivo at 2 mg/kg is -6.75% and the inhibition in vivo at 10 mg/kg stood at 3.33%. For the same compound, the inhibition at 19 µM on cPLA2 (CONCENTRATION 19 micromolar, read-out: PERCENT INHIBITION @) was 50%. For the same compound, the inhibition at 20 µM on cPLA2 (CONCENTRATION 20 micromolar, read-out: PERCENT INHIBITION @) came to 50%.

(Values after US6500853B1, “Inhibitors of phospholipase enzymes” (Genetics Institute, LLC, priority 1998, dated 2002).)
